# Measurements published in the supplement of paper PMC10307832.
# Legend:
# Assay in all cases: relative viability (nuclei count vs DMSO), 5 days (fraction); higher = more cells survive
# [1] = compound: COC1=CC=C(C=C1)COC2=C(C=C(C=C2)CC3=CN=C(N=C3N)N)OC [GW-2580] + CC(=O)c1c(C)c2cnc(Nc3ccc(N4CCNCC4)cn3)nc2n(C2CCCC2)c1=O [Palbociclib] (partner 0.5 µM)
# Procedure, shortened: (§1)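 Medians of duplicate plates are given as relative viability. That measure is the nuclei count in treated wells divided by the count in vehicle wells. Counts were taken on 4× images of lung cancer cell lines in 1536-well plates, 5 days after pin-tool dosing the day after seeding with one drug alone or a fixed anchor-drug dose plus five library-drug doses (not always all listed) in √10 steps.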
# [2] = compound: COC1=CC=C(C=C1)COC2=C(C=C(C=C2)CC3=CN=C(N=C3N)N)OC [GW-2580] + Cc1cc(Nc2cc(N3CCN(C)CC3)nc(Sc3ccc(NC(=O)C4CC4)cc3)n2)n[nH]1 [Tozasertib] (partner 0.1 µM)
# Procedure, shortened: as §1
# [3] = compound: COC1=CC=C(C=C1)COC2=C(C=C(C=C2)CC3=CN=C(N=C3N)N)OC [GW-2580] + Nc1ncn([C@H]2C[C@H](O)[C@@H](CO)O2)c(=O)n1 [Decitabine] (partner 2 µM)
# Procedure, shortened: as §1
# [4] = compound: Cc1cnc(Nc2ccc(OCCN3CCCC3)cc2)nc1Nc1cccc(S(=O)(=O)NC(C)(C)C)c1 [Fedratinib] + COc1cccc2cc(-c3nc([C@H]4CC[C@H](C(=O)O)CC4)n4ncnc(N)c34)[nH]c12 [OSI-027] (partner 0.5 µM)
# Procedure, shortened: as §1
# [5] = compound: Cc1cnc(Nc2ccc(OCCN3CCCC3)cc2)nc1Nc1cccc(S(=O)(=O)NC(C)(C)C)c1 [Fedratinib] + Cc1nc(NC(=O)N2CCC[C@H]2C(N)=O)sc1-c1ccnc(C(C)(C)C(F)(F)F)c1 [Alpelisib] (partner 2 µM)
# Procedure, shortened: as §1
# [6] = compound: Cc1cnc(Nc2ccc(OCCN3CCCC3)cc2)nc1Nc1cccc(S(=O)(=O)NC(C)(C)C)c1 [Fedratinib] + Cc1nc(Nc2ncc(C(=O)Nc3c(C)cccc3Cl)s2)cc(N2CCN(CCO)CC2)n1 [Dasatinib] (partner 0.075 µM)
# Procedure, shortened: as §1
cell line,measurement,setting,value
UMC-11,relative viability,[1]; first compound 0.08 µM,0.329
same,relative viability,[1]; first compound 0.8 µM,0.352
same,relative viability,[1]; first compound 8 µM,0.348
same,relative viability,[2]; first compound 0.08 µM,0.206
same,relative viability,[2]; first compound 0.8 µM,0.284
same,relative viability,[2]; first compound 2.53 µM,0.198
same,relative viability,[2]; first compound 8 µM,0.197
same,relative viability,[3]; first compound 0.08 µM,0.617
same,relative viability,[3]; first compound 0.8 µM,0.424
same,relative viability,[3]; first compound 8 µM,0.586
same,relative viability,[4]; first compound 0.1 µM,0.473
same,relative viability,[4]; first compound 0.3162 µM,0.452
same,relative viability,[4]; first compound 1 µM,0.373
same,relative viability,[5]; first compound 0.1 µM,0.985
same,relative viability,[5]; first compound 0.3162 µM,0.876
same,relative viability,[5]; first compound 1 µM,0.95
same,relative viability,[6]; first compound 0.1 µM,0.53
same,relative viability,[6]; first compound 0.3162 µM,0.412
same,relative viability,[6]; first compound 1 µM,0.453
